Drawing on patent US20110212053A1, “PHOSPHATIDYLINOSITOL 3 KINASE INHIBITORS” (priority 2008, published 2011), this text covers IC50 for 3 compounds.

SMILES strings stand for the structures. Where “and” joins values, the source holds several entries; their conditions need not be identical. Equal values may be shown once.

In one experiment the target is T1, PI3Kα (Homo sapiens, UniProt P42336).
T1 construct: purchased Invitrogen or Millipore
Put plainly: KinaseGLO luminescent PI3-kinase assay, PI3Kα. Type of experiment: biochemical. The procedure:
(§1) Compound Preparation: KinaseGLO assay: 30× stocks of inhibitors were prepared in DMSO. A 10 mM master stock was prepared and all other stocks were generated by serial dilution of this master stock in DMSO. The final concentration of DMSO in the kinase reaction was 3.3% (v/v).
(§2) PI3-Kinase Assay: The KinaseGLO® Luminescent Kinase Assay (Promega) is a luciferin-luciferase based luminescent assay that utilizes a proprietary thermostable luciferase to quantify the ATP remaining in a solution after a kinase reaction. The luminescent signal generated using KinaseGLO® directly correlates with ATP concentration, and therefore inversely correlates with kinase activity.
PI3K enzyme sample was thawed and diluted to 100 ng/μL in enzyme dilution buffer (50 mM HEPES, pH7.5, 3.0 mM MgCl2, 1.0 mM EGTA) and stored on ice. PI3Kα enzyme was diluted to a final concentration of 1 ng/μL in reaction buffer (for PI3Kα; 50 mM HEPES, pH7.5, 100 mM NaCl, 2.0 mM DTT, 3.0 mM MgCl2, 1.0 mM EGTA, 10 μM ATP) and gently mixed. 25 μL of this kinase reaction was then aliquoted into test wells in a Microfluor2 white 96-well plate (Thermo Scientific). As a preincubation step, 1 μl of 30× compound dilutions was added to the appropriate test wells to generate a ten point dose-response ranging from 0.0 μM-10 μM inhibitor. The enzyme-inhibitor mixture was then incubated for 30 minutes at 4° C. After this preincubation, […] (50 μM final concentration) was added to each test well to initiate the kinase reaction. Reactions were incubated at room temperature for 2 hours with moderate shaking. The KinaseGLO® luminescent reagent (Promega) was prepared according to the manufacturer's instructions. Both the KinaseGLO® buffer and substrate were allowed to thaw and equilibrate at room temperature for two hours prior to mixing and use. The PI3-kinase reaction was terminated by the addition of 30 μL of reconstituted KinaseGLO® reagent to each reaction well and then incubated in the dark for 10 minutes at room temperature. Luminescent signal was detected using a SpectraMax M5 (Molecular Devices). Maximal luminescence (no PI3K activity/maximal PI3K inhibition) was determined from reaction buffer plus SC-PI substrate only controls. The minimal signal (maximal PI3K activity) was determined by the 0.0 μM compound (DMSO only) control. IC50 values were calculated via non-linear regression using GraphPad Prism data analysis software.
(§3) Compounds were assayed against the Class I PI3Kα, PI3Kβ, PI3Kγ, PI3Kδ, PI3Kα(H1047R) and PI3Kα(E545K) in the KinaseGLO assay as described in Example 2, and against the Class IV PI3K mTOR in the radiometric assay. IC50 values (μM) were determined using 8-10 point half-log dose dilutions and calculated via nonlinear regression analysis using Graphpad Prism data analysis software.

The target in the next experiment is T2, PI3Kδ (Homo sapiens, UniProt O00329).
T2 construct: purchased Invitrogen or Millipore
Put plainly: KinaseGLO luminescent PI3-kinase assay, PI3Kδ. Type of experiment: biochemical. As to the method:
as §1, §2
(§4) PI3K enzyme sample was thawed and diluted to 100 ng/μL in enzyme dilution buffer (50 mM HEPES, pH7.5, 3.0 mM MgCl2, 1.0 mM EGTA) and stored on ice. PI3Kα enzyme was diluted to a final concentration of 1 ng/μL in reaction buffer (for PI3Kα; 50 mM HEPES, pH7.5, 100 mM NaCl, 2.0 mM DTT, 3.0 mM MgCl2, 1.0 mM EGTA, 10 μM ATP) and gently mixed. 25 μL of this kinase reaction was then aliquoted into test wells in a Microfluor2 white 96-well plate (Thermo Scientific). As a preincubation step, 1 μl of 30× compound dilutions was added to the appropriate test wells to generate a ten point dose-response ranging from 0.0 μM-10 μM inhibitor. […] Luminescent signal was detected using a SpectraMax M5 (Molecular Devices). Maximal luminescence (no PI3K activity/maximal PI3K inhibition) was determined from reaction buffer plus SC-PI substrate only controls. The minimal signal (maximal PI3K activity) was determined by the 0.0 μM compound (DMSO only) control. IC50 values were calculated via non-linear regression using GraphPad Prism data analysis software.
as §3

For the next experiment, the target named is T3, PI3Kγ (Homo sapiens, UniProt P48736).
T3 construct: purchased Invitrogen or Millipore
Put plainly: KinaseGLO luminescent PI3-kinase assay, PI3Kγ. The format is biochemical. As to the method:
as §1, §2, §4, §3

Experiment [1] deals with p-AKT(S473) in U-87 MG cells. Put plainly: In-cell western blot (cytoblot) of AKT phosphorylation, U-87 MG. The following applies: Homo sapiens, read-out: IC50 against the p-AKT(S473) phosphorylation site. Type of experiment: cell-based. As to the method: Compound Preparation: Cell-based assays: 1000× stocks of inhibitors were prepared in DMSO. A 10 mM master stock was prepared and all other stocks were generated by serial dilution of the master stock in DMSO. The final concentration of DMSO in cell-based assays was 0.1% (v/v).
In-cell western blot (cytoblot) mechanistic assay; Measurement of AKT phosphorylation: The in-cell western blot assay is a quantitative 96-well immunocytochemistry assay using fixed cells. Phosphorylated AKT is detected and quantified via either enhanced chemiluminescence (ECL) or near infra-red (LI-COR) methods. Log-phase cells (10,000 A549, RKO or 30,000 U-87 MG) were plated in collagen coated, 96 well plates (Nunc) in 200 μL of growth medium (10% FBS/DMEM) and allowed to attach overnight at 37° C. in 5% CO2 incubator. Black 96 well plates were used for ECL assays. White, clear bottomed 96 well plates were used for LI-COR assays. The following day the growth medium was removed. For experiments using U-87 MG cells and RKO cells, the growth medium was replaced with 200 μL of fresh growth medium containing inhibitors dissolved in DMSO. PI3K inhibitors were dosed using half-log dilutions to generate an eight-point dose-response curve from 0.0 μM-10 μM for EC50 determinations, and the final concentration of DMSO in the test wells was 0.1% (v/v). The inhibitor treated cells were then incubated for 1 hour at 37° C. […]
After the inhibitor incubation phase (with or without IGF-1 stimulation), the medium was aspirated, the cells washed once with Tris-Buffered Saline (TBS) and then fixed in the wells by addition of 200 μL of cold 3.7% (v/v) formaldehyde diluted in TBS to test wells and incubated for 15 minutes at 4° C. […] The wells were then was washed four times with ice-cold TBS-T. Phospho-AKT luminescent signal was detected after a 1 minute incubation of test wells with 100 μL of ECL reagent using a SpectraMax M5 luminometer. (ii) Near-infrared fluorescence detection (LI-COR): After removal of the methanol, wells were blocked with 200 μL of LI-COR blocking buffer for 1 hour at room temperature. […]

T3 sequence (P48736 whole entry): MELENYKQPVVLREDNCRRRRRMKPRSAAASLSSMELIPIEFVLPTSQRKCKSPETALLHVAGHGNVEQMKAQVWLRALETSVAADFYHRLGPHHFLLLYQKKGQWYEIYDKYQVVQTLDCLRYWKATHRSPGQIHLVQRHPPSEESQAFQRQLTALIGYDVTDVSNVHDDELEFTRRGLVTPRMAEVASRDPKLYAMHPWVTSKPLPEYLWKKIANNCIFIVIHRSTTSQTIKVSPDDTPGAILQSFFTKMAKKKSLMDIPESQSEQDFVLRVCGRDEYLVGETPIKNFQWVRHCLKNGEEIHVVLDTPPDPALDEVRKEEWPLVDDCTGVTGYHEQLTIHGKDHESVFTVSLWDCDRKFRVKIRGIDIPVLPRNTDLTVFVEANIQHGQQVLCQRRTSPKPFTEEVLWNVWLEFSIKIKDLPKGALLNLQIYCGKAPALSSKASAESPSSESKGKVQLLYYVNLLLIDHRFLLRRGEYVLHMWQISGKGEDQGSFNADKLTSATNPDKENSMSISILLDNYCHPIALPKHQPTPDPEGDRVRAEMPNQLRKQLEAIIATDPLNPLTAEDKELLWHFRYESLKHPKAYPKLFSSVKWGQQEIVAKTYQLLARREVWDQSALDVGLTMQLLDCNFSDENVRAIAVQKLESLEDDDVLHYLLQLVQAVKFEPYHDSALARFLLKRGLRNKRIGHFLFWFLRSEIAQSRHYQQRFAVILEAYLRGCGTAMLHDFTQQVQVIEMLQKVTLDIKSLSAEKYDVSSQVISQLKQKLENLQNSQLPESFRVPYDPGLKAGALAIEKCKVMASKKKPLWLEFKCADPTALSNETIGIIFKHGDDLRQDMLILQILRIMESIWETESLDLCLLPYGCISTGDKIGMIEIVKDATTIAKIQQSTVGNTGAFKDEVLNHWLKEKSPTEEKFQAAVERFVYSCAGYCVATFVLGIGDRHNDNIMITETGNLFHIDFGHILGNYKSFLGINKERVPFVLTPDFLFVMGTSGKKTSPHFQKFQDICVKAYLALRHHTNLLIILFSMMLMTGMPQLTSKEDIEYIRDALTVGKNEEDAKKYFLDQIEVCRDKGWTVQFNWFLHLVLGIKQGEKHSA
T1 sequence (P42336 whole entry): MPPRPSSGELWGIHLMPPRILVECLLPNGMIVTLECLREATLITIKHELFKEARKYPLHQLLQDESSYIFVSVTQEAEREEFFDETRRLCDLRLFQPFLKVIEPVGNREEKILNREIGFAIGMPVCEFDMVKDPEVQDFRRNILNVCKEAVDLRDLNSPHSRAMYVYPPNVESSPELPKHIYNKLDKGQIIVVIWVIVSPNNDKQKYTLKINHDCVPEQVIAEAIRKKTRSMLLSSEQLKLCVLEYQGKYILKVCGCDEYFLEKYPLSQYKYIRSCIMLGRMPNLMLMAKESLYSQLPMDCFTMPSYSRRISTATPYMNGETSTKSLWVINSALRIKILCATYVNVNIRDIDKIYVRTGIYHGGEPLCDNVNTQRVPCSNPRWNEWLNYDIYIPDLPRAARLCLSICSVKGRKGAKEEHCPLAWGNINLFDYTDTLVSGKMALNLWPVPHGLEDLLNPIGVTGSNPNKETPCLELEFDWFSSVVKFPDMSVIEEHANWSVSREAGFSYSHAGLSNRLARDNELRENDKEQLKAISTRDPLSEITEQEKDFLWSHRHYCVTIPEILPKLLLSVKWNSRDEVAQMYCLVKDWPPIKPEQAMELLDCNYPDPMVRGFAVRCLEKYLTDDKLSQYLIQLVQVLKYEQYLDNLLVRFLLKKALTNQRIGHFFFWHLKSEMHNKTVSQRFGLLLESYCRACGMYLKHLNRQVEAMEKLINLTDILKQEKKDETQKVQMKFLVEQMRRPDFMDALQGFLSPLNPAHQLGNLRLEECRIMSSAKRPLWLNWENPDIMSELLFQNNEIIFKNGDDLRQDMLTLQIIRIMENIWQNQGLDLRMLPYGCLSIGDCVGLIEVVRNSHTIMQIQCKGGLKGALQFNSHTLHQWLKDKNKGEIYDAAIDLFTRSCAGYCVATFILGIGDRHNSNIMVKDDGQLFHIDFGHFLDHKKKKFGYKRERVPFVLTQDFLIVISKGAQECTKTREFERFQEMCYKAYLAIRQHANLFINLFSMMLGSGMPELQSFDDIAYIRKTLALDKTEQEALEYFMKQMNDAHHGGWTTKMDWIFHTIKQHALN
T1 sequence (P27986 whole entry partner): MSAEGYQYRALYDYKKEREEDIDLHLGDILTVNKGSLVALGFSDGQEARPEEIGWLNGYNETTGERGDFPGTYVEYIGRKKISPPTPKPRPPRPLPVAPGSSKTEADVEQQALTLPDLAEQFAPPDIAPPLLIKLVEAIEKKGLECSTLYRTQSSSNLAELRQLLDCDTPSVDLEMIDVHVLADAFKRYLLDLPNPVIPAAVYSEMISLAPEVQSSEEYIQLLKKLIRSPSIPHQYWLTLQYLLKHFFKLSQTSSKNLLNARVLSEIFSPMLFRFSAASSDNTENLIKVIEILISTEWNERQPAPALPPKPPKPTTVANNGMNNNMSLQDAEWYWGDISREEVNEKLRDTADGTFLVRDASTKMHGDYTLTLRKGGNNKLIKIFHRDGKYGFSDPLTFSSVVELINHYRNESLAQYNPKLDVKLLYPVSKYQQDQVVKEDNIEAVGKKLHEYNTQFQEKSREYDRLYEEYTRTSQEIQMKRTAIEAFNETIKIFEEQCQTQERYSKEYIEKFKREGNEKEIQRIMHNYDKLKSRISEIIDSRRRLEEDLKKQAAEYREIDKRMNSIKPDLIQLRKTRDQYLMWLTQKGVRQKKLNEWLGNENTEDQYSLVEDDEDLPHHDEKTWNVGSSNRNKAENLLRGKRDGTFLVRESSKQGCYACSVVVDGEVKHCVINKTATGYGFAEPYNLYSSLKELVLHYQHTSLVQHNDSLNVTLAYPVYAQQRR
T2 sequence (O00329 whole entry): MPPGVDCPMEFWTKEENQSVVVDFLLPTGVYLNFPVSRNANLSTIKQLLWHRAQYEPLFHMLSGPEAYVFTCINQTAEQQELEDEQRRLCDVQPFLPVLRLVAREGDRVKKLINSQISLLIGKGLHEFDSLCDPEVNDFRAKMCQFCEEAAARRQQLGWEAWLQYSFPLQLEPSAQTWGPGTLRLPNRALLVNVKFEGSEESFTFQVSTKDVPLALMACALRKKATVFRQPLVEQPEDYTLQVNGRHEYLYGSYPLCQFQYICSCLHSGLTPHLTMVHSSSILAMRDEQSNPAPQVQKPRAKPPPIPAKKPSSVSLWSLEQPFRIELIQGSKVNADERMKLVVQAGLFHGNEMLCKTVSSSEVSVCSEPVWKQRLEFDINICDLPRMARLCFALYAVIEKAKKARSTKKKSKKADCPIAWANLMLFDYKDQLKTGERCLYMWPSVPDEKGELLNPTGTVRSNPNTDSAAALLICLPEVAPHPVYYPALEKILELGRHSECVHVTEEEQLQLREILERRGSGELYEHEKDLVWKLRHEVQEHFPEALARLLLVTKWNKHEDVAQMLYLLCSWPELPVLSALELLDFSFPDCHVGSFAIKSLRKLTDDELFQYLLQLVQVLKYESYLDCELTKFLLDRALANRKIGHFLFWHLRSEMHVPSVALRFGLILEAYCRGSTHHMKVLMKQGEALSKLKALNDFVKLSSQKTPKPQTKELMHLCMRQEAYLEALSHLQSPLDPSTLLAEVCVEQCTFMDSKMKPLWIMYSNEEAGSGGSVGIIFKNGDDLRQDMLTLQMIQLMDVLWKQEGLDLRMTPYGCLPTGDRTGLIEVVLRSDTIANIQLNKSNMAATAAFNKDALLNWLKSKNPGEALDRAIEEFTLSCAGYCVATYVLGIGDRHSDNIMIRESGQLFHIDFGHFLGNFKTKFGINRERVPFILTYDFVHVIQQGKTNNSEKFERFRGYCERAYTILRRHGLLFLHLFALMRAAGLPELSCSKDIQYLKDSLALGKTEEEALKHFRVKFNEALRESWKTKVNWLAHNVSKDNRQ
T2 sequence (P27986 whole entry partner): as the sequence (P27986 whole entry partner) above

Take `CC(C)(C#N)c1ccc(-c2n[nH]c3cnc4ccc(-c5cccnc5)cc4c23)cc1` [Compound 1107, 2-methyl-2-(4-(8-(pyridin-3-yl)-3H-pyrazolo[3,4-c]quinolin-1-yl)phenyl)propanenitrile]: the half-maximal inhibitory concentration (IC50) is less than 10 nM at PI3Kα, 10 to 35 nM against PI3Kδ, 10 to 25 nM against PI3Kγ and 54 nM in experiment [1].
`CC(C)(C#N)c1ccc(-c2n[nH]c3cnc4ccc(-c5cnc6ccccc6c5)cc4c23)cc1` [Compound 1078, 2-methyl-2-(4-(8-(quinolin-3-yl)-3H-pyrazolo[3,4-c]quinolin-1-yl)phenyl)propanenitrile]: the IC50 on PI3Kα is more than 20 nM; against PI3Kδ, < 15 nM and 10 to 35 nM; against PI3Kγ, 10 to 25 nM; in experiment [1], 88 nM.
In the case of `CC(C)(C#N)c1ccc(-c2n[nH]c3cnc4ccc(-c5ccc6ncccc6c5)cc4c23)cc1` [Compound 1110, 2-methyl-2-(4-(8-(quinolin-6-yl)-3H-pyrazolo[3,4-c]quinolin-1-yl)phenyl)propanenitrile], the IC50 against PI3Kα is less than 10 nM; against PI3Kδ, 10 to 35 nM; against PI3Kγ it was 10 to 25 nM; in experiment [1], 81 nM.
